In patent US20150105252A1, “SUBSTITUTED PYRAZOLES AS HERBICIDES” (E I DU PONT DE NEMOURS AND COMPANY, priority 2013, published 2015):

Legend:
Details in all cases: scale 0 to 100
barnyardgrass = experiment: Test F postemergence; type: in vivo, Echinochloa crus-galli
Text: (§1) Seeds of plant species selected from corn (Zea mays), soybean (Glycine max), velvetleaf (Abutilon theophrasti), lambsquarters (Chenopodium album), wild poinsettia (Euphorbia heterophylla), pigweed, palmer (palmer pigweed, Amaranthus palmeri), common waterhemp (Amaranthus rudis), surinam grass (Brachiaria decumbens), large crabgrass (Digitaria sanguinalis), crabgrass, Brazil (Brazilian crabgrass, Digitaria horizontalis), fall panicum (Panicum dichotomiflorum), giant foxtail (Setaria faberii), green foxtail (Setaria viridis), goosegrass (Eleusine indica), johnsongrass (Sorghum halepense), common ragweed (Ambrosia elation), barnyardgrass (Echinochloa crus-galli), southern sandbur (Cenchrus echinatus), arrowleaf sida (Sida rhombifolia), Italian ryegrass (Lolium multiflorum), dayflower, VA (Virginia (VA) dayflower, Commelina virginica), field bindweed (Convolvulus arvensis), cocklebur (common cocklebur, Xanthium strumarium), morningglory (Ipomoea coccinea), nightshade (eastern black nightshade, Solanum ptycanthum), kochia (Kochia scoparia), yellow nutsedge (Cyperus esculentus), and hairy beggarticks (Bidens pilosa), were planted into a silt loam soil and treated preemergence with test chemicals formulated in a non-phytotoxic solvent mixture which included a surfactant.
(§2) At the same time, plants from these crop and weed species and also horseweed (Canada horseweed, Conyza canadensis), smartweed (ladysthumb smartweed, Polygonum persicaria), waterhemp_RES1, (ALS & Triazine resistant common waterhemp, Amaranthus rudis), and waterhemp_RES2, (ALS & HPPD resistant common waterhemp, Amaranthus rudis) were treated with postemergence applications of test chemicals formulated in the same manner. Plants ranged in height from 2 to 18 cm for postemergence treatments (1- to 4-leaf stage). Treated plants and controls were maintained in a greenhouse for 14 to 21 days, after which time all species were compared to controls and visually evaluated. Plant response ratings, summarized in Table F, are based on a scale of 0 to 100 where 0 is no effect and 100 is complete control. A dash (-) response means no test result.

[1] = tested on: waterhemp_RES1 (ALS & Triazine resistant common waterhemp); experiment: Test F postemergence; type: in vivo, Amaranthus rudis
Text: as §1, §2

cocklebur = experiment: Test F preemergence; type: in vivo, Xanthium strumarium
Text: as §1, with “surfactant. […]” for “surfactant.”

CCc1cc(-c2ccc(C(F)(F)F)cc2)nn1Cc1ccnc(C(F)(F)F)c1 [Compound 110]
Plant response rating, Barnyardgrass (barnyardgrass; Postemergence, 16 g ai/ha): 20 | Plant response rating, Barnyardgrass (barnyardgrass; Postemergence, 31 g ai/ha): 20 | Plant response rating, Barnyardgrass (barnyardgrass; Postemergence, 125 g ai/ha): 50 | Plant response rating, Barnyardgrass (barnyardgrass; postemergence, 8 g ai/ha): 10 | Plant response rating, Waterhemp_RES1 ([1]; Postemergence, 16 g ai/ha): 90 | Plant response rating, Waterhemp_RES1 ([1]; Postemergence, 31 g ai/ha): 98 | Plant response rating, Waterhemp_RES1 ([1]; Postemergence, 125 g ai/ha): 100 | Plant response rating, Waterhemp_RES1 ([1]; postemergence, 62 g ai/ha): 90 | Plant response rating, Waterhemp_RES1 ([1]; postemergence, 8 g ai/ha): 85

CCc1cc(C(=O)NCC(F)(F)F)nn1Cc1ccnc(Br)c1 [Compound 224]
Plant response rating, Cocklebur (cocklebur; 62 g ai/ha): 0 | Plant response rating, Cocklebur (cocklebur; 125 g ai/ha): 0

CCCNC(=O)c1cc(CC)n(Cc2nc(C(F)(F)F)nn2C)n1 [Compound 109]
Plant response rating, Barnyardgrass (barnyardgrass; Postemergence, 16 g ai/ha): 0 | Plant response rating, Barnyardgrass (barnyardgrass; Postemergence, 31 g ai/ha): 0 | Plant response rating, Barnyardgrass (barnyardgrass; Postemergence, 125 g ai/ha): 30 | Plant response rating, Barnyardgrass (barnyardgrass; Postemergence, 250 g ai/ha): 50
